Data taken from US20240124408A1 (Sanofi, priority 2020, published 2024).
Where two headings read alike, the source gives them in different places.

What was measured:
[1] = biological target: T1, pig TRPM8 (Sus scrofa, UniProt F1SM15); assay: In vitro pig TRPM8 fluorescence calcium flux assay (recombinant CHO cells, Fluo4-AM, FDSS6000); assay type: cell-based; details: recombinant CHO cells expressing pig TRPM8; menthol-related EC50, normalized to 100 μM menthol
T1 construct: expressed in transfected cells; host or cells: CHO (pcDNA5/FRT/TO vector; hygromycin B and blasticidin selection)
How it was run: (§1)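 CHO cells stably expressing pig or human TRPM8, loaded with 2 μM Fluo4-AM in HBSS/20 mM HEPES/0.1% BSA/2.5 mM probenecid for 1 h at RT. Intracellular calcium read kinetically for 3 min after compound addition. EC50 from sixteen-point curves, normalized to 100 μM menthol maximal response.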

[2] = biological target: T2, human TRPM8 (Homo sapiens, UniProt Q7Z2W7); assay: In vitro human TRPM8 fluorescence calcium flux assay (recombinant CHO cells, Fluo4-AM, FDSS6000); assay type: cell-based; details: recombinant CHO cells expressing human TRPM8; menthol-related EC50, normalized to 100 μM menthol
T2 construct: expressed in transfected cells; host or cells: CHO (p658 mammalian expression vector)
How it was run: as §1

[3] = system: Male castrated German Landrace pigs; assay: In vivo assay: enhancement of swallowing in anesthetized pigs (manometry with pressure probe in the mouth); details: Sus scrofa, anesthetized pig, dose per pig 10 mg, injected in 1 ml vehicle into the oral cavity
Experimental: For testing the efficacy of TRPM8 agonists for enhancing swallowing, experiment using the pig model can be conducted according to assay described below. The efficacy can be compared to a vehicle control.
Male castrated German Landrace pigs (weight range of 20 to 35 kg) were used. Anesthesia was induced by injecting 20 ml of a urethane solution (20 g/100 mL dissolved in saline) into an ear vein corresponding to a dose of around […]. Anesthesia was maintained by continuous infusion of 15-20 mL per hour of the urethane solution, which was infused into an epigastric vein, and additionally by infusion of Zoletil and Rompun (500 mg Zoletil is disssovled in 10 ml of Rompun 2%, then diluted 1:10 with saline and 3-5 mL per hour of this diluted solution. Bupivacain 0.5% JENAPHARM@ was injected for additional infiltration anesthesia. Anesthesia was monitored via pulsoximetry (ear) and regular reflex testing for pain. Body temperature was monitored and maintained by an infrared lamp.
Preparation of pigs: Swallowing responses were assessed by manometry with a pressure probe placed into the mouth of the pig. The pressure probe consisted of a plastic tube (diameter 3.3 mm) to which a small balloon was attached. The tube was advanced about 12-14 cm into the mouth related to the snout. The balloon was then inflated with air to yield a pressure of 20-30mbar (vehicle). Ideally a swallowing response with 1 ml of fluid raised this pressure by 20-50mbar which was then referred to as the swallowing pressure (the increment of this pre-set pressure in the inflated balloon after swallowing) to be further enhanced by an effective test drug.
The free end of the tube was connected to a differential pressure transducer MPX Type 399/2 (Hugo Sachs Elektronik-Harvard Apparatus) and a Hugo Sachs Plugsys-amplifier system. The biological signals were recorded by a Hugo Sachs Plugsys-amplifier system and continuously stored on a computer hard disk by an on line data acquisition and analysis system (Hem 4.2 Notocord Systems, Croissy-sur-Seine, France).
A second tube referred to as injection tube was placed dorsally to the manometer tube to enable the administration of the vehicle that induced the baseline swallowing activity, or of this same vehicle containing the test compound.
Induction and assessment of swallowing activity: 0.5h after anesthesia induction 1 ml of a fluid or the vehicle for the test drug was injected into the injection tube placed into the oral cavity. The number of swallows was counted and the highest-pressure increment was registered. Challenges with vehicle were repeated at intervals of 30 min until two consecutive vehicle challenges show an about equal swallowing response. The next challenge was the vehicle loaded with the test drug (otherwise same procedure). The efficacy of a compound to enhance swallowing as shown in Table 7 was expressed as the % increase in pressure and frequency of swallowing after administration of the compound compared to the pressure and frequency recorded for its vehicle administered just before.

[4] = biological target: T2, human TRPM8; assay: In vitro human TRPM8 automated patch-clamp assay (SyncroPatch 384PE, CHO cells); assay type: cell-based; details: CHO cells expressing human TRPM8, 28° C.
How it was run: (§2)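 Whole-cell automated patch clamp on engineered CHO lines at 28 °C, held at −60 mV, with −80 to +80 mV ramps every 5 s; one compound concentration per well. Peak current minus pre-addition baseline was normalised to no-compound control and Emax, and EC50 was fitted; 200 μM menthol wells served as control.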

[5] = biological target: T1, pig TRPM8; assay: In vitro pig TRPM8 automated patch-clamp assay (SyncroPatch 384PE, CHO cells); assay type: cell-based; details: CHO cells expressing pig TRPM8, 28° C.
How it was run: as §2

T1 sequence (F1SM15 1-1104): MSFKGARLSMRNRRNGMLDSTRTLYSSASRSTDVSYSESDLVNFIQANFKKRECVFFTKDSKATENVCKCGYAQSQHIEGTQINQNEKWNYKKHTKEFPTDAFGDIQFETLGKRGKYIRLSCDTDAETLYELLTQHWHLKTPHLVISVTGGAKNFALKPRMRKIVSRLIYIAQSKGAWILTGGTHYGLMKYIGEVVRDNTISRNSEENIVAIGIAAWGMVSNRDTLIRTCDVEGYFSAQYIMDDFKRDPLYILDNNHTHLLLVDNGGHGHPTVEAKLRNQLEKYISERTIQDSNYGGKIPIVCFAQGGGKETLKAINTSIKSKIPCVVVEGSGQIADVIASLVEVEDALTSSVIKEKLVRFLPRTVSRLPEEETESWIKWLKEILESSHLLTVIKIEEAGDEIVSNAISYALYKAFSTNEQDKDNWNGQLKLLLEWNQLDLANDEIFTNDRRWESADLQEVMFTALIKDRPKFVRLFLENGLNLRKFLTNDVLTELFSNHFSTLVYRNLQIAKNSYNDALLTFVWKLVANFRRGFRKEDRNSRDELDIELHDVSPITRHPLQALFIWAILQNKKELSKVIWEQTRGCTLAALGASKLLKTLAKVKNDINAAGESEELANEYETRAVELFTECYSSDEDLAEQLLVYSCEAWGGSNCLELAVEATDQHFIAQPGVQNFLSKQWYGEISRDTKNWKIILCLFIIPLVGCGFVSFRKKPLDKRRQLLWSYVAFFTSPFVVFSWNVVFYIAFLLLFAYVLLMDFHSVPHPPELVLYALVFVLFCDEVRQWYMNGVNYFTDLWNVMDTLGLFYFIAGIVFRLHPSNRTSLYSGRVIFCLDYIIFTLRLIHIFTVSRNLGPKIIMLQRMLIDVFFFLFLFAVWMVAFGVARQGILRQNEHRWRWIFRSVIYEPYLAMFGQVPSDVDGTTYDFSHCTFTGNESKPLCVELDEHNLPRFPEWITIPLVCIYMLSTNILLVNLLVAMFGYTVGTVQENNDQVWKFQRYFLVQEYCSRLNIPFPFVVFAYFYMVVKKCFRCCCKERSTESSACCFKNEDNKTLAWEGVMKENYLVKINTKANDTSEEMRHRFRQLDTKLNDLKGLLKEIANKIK
T2 sequence (Q7Z2W7 whole entry): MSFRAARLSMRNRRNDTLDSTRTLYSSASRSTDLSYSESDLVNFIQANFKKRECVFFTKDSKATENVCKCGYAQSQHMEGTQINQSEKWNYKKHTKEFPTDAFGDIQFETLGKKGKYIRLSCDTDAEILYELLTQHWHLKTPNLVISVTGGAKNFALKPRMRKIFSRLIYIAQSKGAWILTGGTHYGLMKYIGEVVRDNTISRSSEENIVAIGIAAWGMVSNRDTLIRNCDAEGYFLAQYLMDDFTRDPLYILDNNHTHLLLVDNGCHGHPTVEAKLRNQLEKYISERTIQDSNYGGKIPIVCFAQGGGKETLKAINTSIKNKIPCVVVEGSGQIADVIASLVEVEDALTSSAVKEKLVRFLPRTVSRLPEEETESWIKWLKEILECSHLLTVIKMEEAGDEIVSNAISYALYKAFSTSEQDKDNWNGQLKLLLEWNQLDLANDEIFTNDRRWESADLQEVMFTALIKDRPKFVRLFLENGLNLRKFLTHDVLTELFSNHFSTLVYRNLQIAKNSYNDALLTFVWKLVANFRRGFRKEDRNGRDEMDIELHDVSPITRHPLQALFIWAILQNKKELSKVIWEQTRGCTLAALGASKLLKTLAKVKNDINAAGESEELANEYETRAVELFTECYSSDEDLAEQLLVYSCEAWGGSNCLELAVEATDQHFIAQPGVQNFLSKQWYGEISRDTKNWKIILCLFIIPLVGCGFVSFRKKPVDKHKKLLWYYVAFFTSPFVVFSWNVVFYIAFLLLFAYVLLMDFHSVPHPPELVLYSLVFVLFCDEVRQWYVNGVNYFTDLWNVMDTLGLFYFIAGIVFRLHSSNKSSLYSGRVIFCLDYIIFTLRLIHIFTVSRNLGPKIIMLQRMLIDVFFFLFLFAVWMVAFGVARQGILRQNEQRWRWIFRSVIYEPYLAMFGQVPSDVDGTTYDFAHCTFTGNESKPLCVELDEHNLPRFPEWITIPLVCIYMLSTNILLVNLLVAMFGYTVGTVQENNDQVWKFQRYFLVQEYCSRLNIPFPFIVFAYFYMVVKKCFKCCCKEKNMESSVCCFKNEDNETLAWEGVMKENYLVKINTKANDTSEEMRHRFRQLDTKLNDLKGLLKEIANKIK

CC(C)[C@@H]1CC[C@@H](C)C[C@@]1(O)C(=O)NCCc1ccccc1CCO [Example 52, (1S,2S,5R)-1-hydroxy-N-(2-(2-hydroxyethyl)phenethyl)-2-isopropyl-5-methylcyclohexane-1-carboxamide]
EC50 [1]: 24.3 nM | EC50 [2]: 26 nM | change in vivo at 10 mg ([3]; frequency of swallowing compared with vehicle administered just before, read-out: % increase frequence vs vehicle): 172% | change in vivo at 10 mg ([3]; swallowing pressure compared with vehicle administered just before, read-out: % increase pressure vs vehicle): 202% | EC50 [4]: 1300 nM | EC50 [5]: 864 nM
